Calls of active or inactive are those of the source. The rule behind the calls is not given here.
Assays:
Staphylococcus aureus = assay: Antibacterial activity against methicillin-resistant Staphylococcus aureus ATCC 33591 infected in Kunming mouse assessed as animal survival rate at 3 mg/kg, ip for 7 days starting from 1 hr post-infection; type: functional; conditions: ATCC 33591, 168 h, time 7 day
Klebsiella pneumoniae = assay: Antibacterial activity against multidrug-resistant Klebsiella pneumoniae 893 assessed as inhibition of bacterial growth incubated for 24 hrs by broth microdilution method; type: functional
Cell membrane [1] = assay: Disruption of bacterial cell membrane in methicillin-resistant Staphylococcus aureus ATCC 33591 assessed as increase in red fluorescence intensity at MIC incubated for 2 hrs by MycoLightGreen1198/PI staining based confocal laser scanning microscopy; type: subcellular
Metamycoplasma hominis = assay: Anti-mycoplasma activity against Mycoplasma hominis PG-21 ATCC23114 assessed as inhibition of mycoplasma growth measured after 7 days by broth microdilution method; type: functional; conditions: PG-21 ATCC23114, 168 h, time 7 day
Cell membrane [2] = assay: Disruption of bacterial cell membrane in Escherichia coli ATCC 25922 assessed as severe depression on the cell surface,cell rupture and leakage of intracellular components at 4XMIC incubated for 4 hrs by FESEM analysis; type: subcellular

C=C[C@]1(C)C[C@@H](OC(=O)CSc2nc(-c3cc[n+](Cc4ccc(C)cc4)cc3)cs2)[C@]2(C)[C@H](C)CC[C@]3(CCC(=O)[C@H]32)[C@@H](C)[C@@H]1O.[Br-]
survival at 3 mg/kg (Staphylococcus aureus): 42.9%
MIC (Klebsiella pneumoniae): 16 µg/mL
Activity (Cell membrane [1]): Active
MIC (Metamycoplasma hominis): 0.015 µg/mL
Activity (Cell membrane [2]): Active

From ChEMBL document CHEMBL5338747, “Discovery of Quaternized Pyridine-Thiazole-Pleuromutilin Derivatives with Broad-Spectrum Antibacterial and Potent Anti-MRSA Activity” (J Med Chem, 2023)
